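All cell lines were grown in 96-well plates and treated with compound for 48 hours. Here, GI50 denotes the concentration required for 50% inhibition of growth.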 The source made the active and inactive calls. Cut-off read from the data, not from the text of the source: active = GI50 up to about 1.1 µM and inactive = higher.
Tests used:
Assay in all cases: NCI-60 cell line screen, 48 h
[1] = test system: DMS-114
[2] = test system: DMS-273
[3] = test system: HOP-18
[4] = test system: KM-20L2
[5] = test system: DLD-1
[6] = test system: SNB-78
[7] = test system: XF498
[8] = test system: M19-MEL
[9] = test system: RXF 631

Compound	GI50 [1]	GI50 [2]	GI50 [3]	GI50 [4]	GI50 [5]	GI50 [6]	GI50 [7]	GI50 [8]	GI50 [9]
NC1=NS(=O)(=O)N=C(N)C1=Cc1ccc([N+](=O)[O-])o1	17.7 µM (inactive)	16.7 µM (inactive)	18 µM (inactive)	16.6 µM (inactive)	17.1 µM (inactive)	19.6 µM (inactive)	18.7 µM (inactive)	16.5 µM (inactive)	
O=C(NCO)NCOCn1c(=O)n(CO)c(=O)n(CO)c1=O	34.4 µM (inactive)		> 100 µM (inactive)	38.6 µM (inactive)	24.9 µM (inactive)	28.4 µM (inactive)	23.2 µM (inactive)	32.4 µM (inactive)	> 61.7 µM (inactive)
NCCSc1cc(O)c2c(c1N)C(=O)c1ccccc1C2=O				5.51 µM (inactive)	30.3 µM (inactive)	32.1 µM (inactive)	21.8 µM (inactive)	24.3 µM (inactive)	25.2 µM (inactive)
N#[N+][c-]1c(-c2ccccc2)n[nH]c1=O	> 100 µM (inactive)	> 100 µM (inactive)		> 100 µM (inactive)	> 100 µM (inactive)		> 100 µM (inactive)	> 100 µM (inactive)	> 100 µM (inactive)
BrC12C3C4C5C(C(C43)C13OCCO3)C52 (stereo not drawn)	> 100 µM (inactive)	> 100 µM (inactive)	8.55 µM (inactive)	> 100 µM (inactive)	> 100 µM (inactive)	> 100 µM (inactive)	60.4 µM (inactive)	> 100 µM (inactive)	> 100 µM (inactive)
O=C1NC(=S)NC(=O)C1=Cc1ccc2ccccc2n1	> 100 µM (inactive)	> 100 µM (inactive)	> 100 µM (inactive)	> 100 µM (inactive)	> 100 µM (inactive)	> 100 µM (inactive)		> 100 µM (inactive)	
CC12CC/C(=N/NC(N)=O)C3C1CCCC32	> 100 µM (inactive)	> 100 µM (inactive)	> 100 µM (inactive)	> 100 µM (inactive)	> 100 µM (inactive)			> 100 µM (inactive)	> 100 µM (inactive)
COC(=O)/C(C#N)=C1\CCC(OC)N1C (stereo not drawn)	> 100 µM (inactive)	> 100 µM (inactive)	> 100 µM (inactive)	> 100 µM (inactive)	> 100 µM (inactive)	> 100 µM (inactive)	> 100 µM (inactive)	> 100 µM (inactive)	
Cc1cc2nc(O)c(CCC(=O)O)nc2cc1C	35.6 µM (inactive)		> 100 µM (inactive)	> 100 µM (inactive)	> 100 µM (inactive)	> 100 µM (inactive)	> 100 µM (inactive)	> 100 µM (inactive)	> 100 µM (inactive)
O=C1C(c2ccccc2)=[N+]([O-])c2ccc(Cl)cc21	12.8 µM (inactive)		29.6 µM (inactive)	35.1 µM (inactive)	19 µM (inactive)		19 µM (inactive)	20.1 µM (inactive)	32.7 µM (inactive)
CCOC(=O)CCC(=O)C1c2cccc(O)c2C(=O)c2c(O)cccc21	0.387 µM (active)	1.28 µM (inactive)	1.77 µM (inactive)		1.69 µM (inactive)	2.04 µM (inactive)	0.236 µM (active)	0.566 µM (active)	
O=C1CC2=CCCC2O1 (stereo not drawn)	> 100 µM (inactive)	> 100 µM (inactive)			> 100 µM (inactive)	> 100 µM (inactive)	> 100 µM (inactive)	> 100 µM (inactive)	
CC(C)CCC[C@@H](C)C1CCC2[C@@H]3CC=C4C[C@@H](C(=O)NCC[N+](C)(C)CCCS(=O)(=O)[O-])CC[C@]4(C)C3CC[C@@]21C (stereo partly drawn)	19.9 µM (inactive)	17 µM (inactive)	17.7 µM (inactive)	16.4 µM (inactive)	22.4 µM (inactive)	18.8 µM (inactive)		17.1 µM (inactive)	18.4 µM (inactive)
CC(/C=C/NNC1=NN=C(c2ccccc2)C(c2ccccc2)N1)Sc1ccccc1N (stereo not drawn)		6.7 µM (inactive)		10.6 µM (inactive)	3.62 µM (inactive)	7.31 µM (inactive)		9.2 µM (inactive)	13.1 µM (inactive)
COc1ccc([C@H]2CC3C(=O)N(c4ccc(OC)cc4)C(=O)C3c3[nH]c4ccccc4c32)cc1 (stereo partly drawn)	87.9 µM (inactive)	14.8 µM (inactive)		69.5 µM (inactive)	93.8 µM (inactive)	> 100 µM (inactive)	32.7 µM (inactive)	71.4 µM (inactive)	
CC(C)c1ccccc1NC(=O)CCC(=O)NN		> 100 µM (inactive)		> 100 µM (inactive)	> 100 µM (inactive)	> 100 µM (inactive)	> 100 µM (inactive)	> 100 µM (inactive)	> 100 µM (inactive)
CC1CC2C3CCC4=CC(=O)C=CC4(C)C3(F)C(O)CC2(C)C1(O)C(=O)CO.Cc1nnc(NS(=O)(=O)c2ccc(/N=N/c3cc(/N=N/c4ccc(S(=O)(=O)Nc5nnc(C)s5)cc4)c4c(NC(=O)C(Cl)Cl)cccc4c3OC(=O)C(Cl)Cl)cc2)s1	18.7 µM (inactive)	11.7 µM (inactive)		31.3 µM (inactive)	16.1 µM (inactive)	> 100 µM (inactive)	25.8 µM (inactive)	18.5 µM (inactive)	34.6 µM (inactive)
Cc1ccc2nc(NC(=O)C(=O)C(C#N)c3nc4ccccc4s3)sc2c1 (stereo not drawn)	24.8 µM (inactive)	28.4 µM (inactive)	11.6 µM (inactive)	28 µM (inactive)		36.3 µM (inactive)	28.8 µM (inactive)	43.6 µM (inactive)	44.7 µM (inactive)
CN(C)CC1CC/C(=C\c2ccc(Cl)cc2)C1=O (stereo not drawn)	7.52 µM (inactive)	3.85 µM (inactive)	18.2 µM (inactive)	12.1 µM (inactive)	3.71 µM (inactive)	16.3 µM (inactive)	7.66 µM (inactive)	3.54 µM (inactive)	20.4 µM (inactive)
Cc1ccccc1/C=C/c1csnn1	> 40.6 µM (inactive)	> 100 µM (inactive)	> 100 µM (inactive)	> 100 µM (inactive)	> 49.5 µM (inactive)	> 100 µM (inactive)	> 100 µM (inactive)	> 80.5 µM (inactive)	> 100 µM (inactive)
CSc1sc(=S)sc1C(=O)N(C)c1ccccc1	> 100 µM (inactive)	> 100 µM (inactive)		> 100 µM (inactive)		> 100 µM (inactive)	> 100 µM (inactive)	> 100 µM (inactive)	
CCN(CC)C(=O)CCn1ccc(=O)[nH]c1=O	> 100 µM (inactive)	> 100 µM (inactive)		> 100 µM (inactive)		> 100 µM (inactive)	> 100 µM (inactive)	> 100 µM (inactive)	
CSC(=O)C[C@@]12O[C@@H]([C@@H](C)C3CCC4[C@@H]5C(O)CC6=CC(=O)C=C[C@]6(C)C5CC[C@@]43C)C[C@](C)(O1)C(C)(C)O2 (stereo partly drawn)	5.81 µM (inactive)	15.9 µM (inactive)				15.5 µM (inactive)	14.7 µM (inactive)	1.43 µM (inactive)	19.8 µM (inactive)
CC(=O)O[C@@H]1CC(C)C2CC2C2=C(C(O)OC2O)[C@@H]1C(C)CCC=C(C)C (stereo partly drawn)	23.2 µM (inactive)	21.4 µM (inactive)		18.7 µM (inactive)	32.4 µM (inactive)	30.5 µM (inactive)	19 µM (inactive)	22.8 µM (inactive)	
COC(=O)C1=Cc2cc(OC)c(OC)c(OC)c2[C@H](c2cc(OC)c(OC)c(OC)c2)C1C(=O)OC (stereo partly drawn)	> 100 µM (inactive)	> 100 µM (inactive)		> 100 µM (inactive)	> 100 µM (inactive)	> 100 µM (inactive)	> 100 µM (inactive)	> 100 µM (inactive)	> 100 µM (inactive)

Reference: ChEMBL document CHEMBL1201862, “PubChem BioAssay data set” (2004)
